Series [1] deals with PBMCs from healthy HCV-seronegative blood donors. It counts as cell-based, human. Particulars: of 12 healthy donors.
Series [2] relates to CTLs in the peripheral blood of patients with chronic HCV infection. Particulars: cited from earlier work.
Series [3] has as its system PBMCs of patients with chronic HCV infection. It counts as cell-based, human. Particulars: HCV core 178 stimulation; result in words.
The mark [4] stands for this setting: after stimulation with HCV core 178.

Regarding LLALLSCLTV [HCV core 178], in series [1] (10 μg/ml peptide, four replica cultures, 5 wk stimulation), the “blood donors with induced HCV core 178–specific CTLs” value is “nine”. In addition, in series [1] (setting [4]), the “individuals recognizing HCV core 178 and CYP2A7 8–17” value is reported as “three”; the “individuals recognizing HCV core 178 only” value is “four”; the “individuals without CTL response” value was “three”. For the same sequence, the “processing and presentation of the peptide” value in series [2] was “processed and presented via the endogenous MHC class I pathway”. For the same sequence, the “recognition by CTLs in patients with chronic HCV infection” value in series [2] (peripheral blood) is on record as “target epitope for CTLs”. In addition, in series [3], the “percentage of patients having cross-reactive CTLs compared with healthy donors” value was “comparable to that of healthy donors”.

Values taken from publication PMC2195568 (The Journal of Experimental Medicine, 1999).
